Laboratory results taken from patent US12023330B2, “Use of manzamines as antiproliferative agent” (priority 2020, dated 2024).

Tested on: p53, p21, cyclin D1, total Rb, phospho-Rb
Assay: Protein expression analysis of cell cycle regulatory proteins
Assay type: cell-based, human
Conditions: 2 and 4 μM, 48 h
Text: Molecular Targets of Manzamine A (1). HeLa, SiHa and CaSki cell lines represent the most common form of cervical cancer infected by the HPV type 16 (SiHa and CaSki) and 18 (HeLa). Cervical cancer is primarily aggravated by the sustained expression of HPV-derived E6 and E7 oncogenes utilizing distinct mechanisms that affect cell-cycle checkpoints. For instance, E6 promotes p53 degradation, while E7 is associated with phosphorylation of retinoblastoma (Rb) proteins. See (22) Huh, K.; Zhou, X.; Hayakawa, H.; Cho, J. Y.; Libermann, T. A.; Jin, J.; Harper, J. W.; Munger, K. J. Virol. 2007, 81, 9737-9747 and Talis, A. L.; Huibregtse, J. M.; Howley, P. M. J. Biol. Chem. 1998, 273, 6439-6445. Both p53 and Rb are tumor suppressor genes and play a critical role in maintaining cell cycle regulation. Additionally, interaction of cyclin D1 with Rb protein and their expression levels correlate positively in association with tumorigenesis. Therefore, we sought to examine the molecular targets of manzamine A leading to anti-cancer activity in cervical cancer. […] Following the overnight attachment of 1×10^6 cells/well, the cells were treated with manzamine A (1) at 2 and 4 μM concentrations and incubated for 48 h. Cell lysates were prepared for protein analysis. […] However, detailed mechanistic studies of manzamine A determining anti-cancer effect are required to further substantiate these observations.
Protein Expression Analysis. C33A, HeLa, SiHa and CaSki cells were seeded at a density of 1×10^6 cells/100 mm petri dish. The next day, the cells were treated with 2 μM or 4 μM concentrations of manzamine A (1) or with 10, 20, or 40 μM concentrations with apigenin (Sigma, MO) and incubated for 48 hours. At the given time-point, the cells were harvested by trypsinization, washed with PBS, and lysed using radioimmunoprecipitation assay (RIPA) buffer containing a cocktail of protease inhibitors (Sigma, MO) to extract protein. Following quantification by colorimetric assay (Bio-Rad), equal amount of protein was loaded on to SDS-polyacrylamide gel and transferred to polyvinylidene difluoride (PVDF) membrane, which was blocked in 5% non-fat dry milk in tris-buffered saline with tween-20 (TBST) and incubated with primary antibody against p53, p21, Cyclin D1, SIX1, GAPDH (Cell signaling) or CK2α (R&D Systems) at a 1:500 dilution. For total CK2a, Rb and pRb, the blocking and antibody dilutions were made in 3% bovine serum albumin (BSA). The membrane was washed with TBST and incubated with secondary IgG HRP conjugate at 1:2000 dilution. The specific band of the protein was visualized with chemiluminescence reagent exposed onto BioMax Film (Kodak) and ChemoDoc-it^2 imager (UVP).

O[C@]12C=C(c3nccc4c3[nH]c3ccccc34)[C@@H]3CCN(CCCC/C=C\CC1)C[C@@]31C[C@@H]3/C=C\CCCCN3[C@H]12 [manzamine A]
p21 protein level (C33A): not-detectable
p53 protein level (C33A): did not show any change
p21 level (HeLa): remains unchanged
p53 level (HeLa): marginal increase
cyclin D1, total Rb, and phospho-Rb protein level (SiHa and CaSki): inhibition
p53 and p21 protein level (SiHa and CaSki): increase
